The text below walks through data of US12180252B2, “Peptide derived from PEP27 peptide and uses thereof” (priority 2021, dated 2024).

Read-outs that look alike come from different tables or passages of the source. Where a SMILES comes first, the peptide text is derived from it.

Series [1] in a line: Calcein release from LUVs. As to conditions: peptide-to-lipid (P/L) ratio 0.2; PE/PG and PC/CH/SM liposomes; 100% = 0.1% Triton X-100. How it is done:
To examine the mechanism of action of PEP27 and PEP27-2, we evaluated the changes in bacterial cell membrane permeability by monitoring the release of calcein, a fluorescent marker, from calcein entrapped LUVs with different lipid bilayer compositions.
Peptide-induced membrane permeabilization was quantified by monitoring calcein release from LUVs (n=3 per condition). Different calcein-entrapped LUVs [PE/PG (7/3) or PC/CH/SM (1/1/1)] were prepared as described above, except that the dry lipid films were resuspended in 1 mL of PBS (pH 7.2) containing 70 mM calcein. Gel filtration chromatography on a Sephadex G-50 column was performed to separate free calcein from that entrapped in LUVs. Thereafter, the LUVs with entrapped calcein were mixed with peptides at various ratios, and the fluorescence of the released calcein was measured with a SpectraMax M3 Multi-Mode Microplate Reader (Molecular Devices, Sunnyvale, CA, USA) at excitation and emission wavelengths of 480 and 520 nm, respectively.

A further series is described as follows: MTT cytotoxicity. Type of series: cell-based, human. The note with it: human; 100 μM, 24 h, MTT, HaCaT and MCF-7 cells; read-out: cell viability. How it is done: Specifically, Thiazolyl blue tetrazolium bromide (MTT, Merck KGaA) was used to determine the cytotoxicity of PEP27 and its analogs against HaCaT (human keratinocyte […], n=4 per condition) and MCF-7 (human breast adenocarcinoma, n=3 per condition) cells. The cells were cultured in Dulbecco's modified Eagle's medium (DMEM) supplemented with 10 heat-inactivated fetal bovine serum (FBS, Gibco, Grand Island, NY, USA) and 1% penicillin-streptomycin (Gibco) at a density of 2×10^4 cells/well (96-well plate). Peptides were then added at various concentrations and incubated for 24 h at 37° C., after which MTT (final concentration, 0.5 mg/mL) was added to each well and incubated for 4 h. The formazan product was solubilized in DMSO, and the absorbance at 570 nm was measured to […] cytotoxicity. Cells treated with 0.1% Triton X-100 were used as the 100% cytotoxic control sample.

A further series concerns plasmid DNA (pRSETB). The series can be described thus: Peptide-DNA binding by agarose gel electrophoresis. The note with it: peptide/DNA ratios 0.25:1 to 4:1, 300 ng plasmid DNA. Here is the method:
Specifically, 300 ng of plasmid DNA (pRSETB) was reacted with the peptide by a relative ratio (reactions were performed at peptide/DNA ratios of DNA alone, 0.25:1, 0.5:1, 1:1, 1.5:1, 2:1, 3:1, 4:1, respectively) at 37° C. for 10 minutes, followed by conducting electrophoresis on a 1% agarose gel, staining the same with ethidium bromide (EtBr) and monitoring through UV.

Series [2] relates to red blood cells of a rat (Balb/c). The note with it: 37° C., 1 hour. Here is the method: In order to compare the cytotoxicity of the peptides prepared by the method of above 1, erythrocyte hemolytic activity of each of the synthesized peptides was measured.
Specifically, red blood cells of a rat (Balb/c, 6 weeks old, female) were diluted with PBS (pH 7.0) to a concentration of 8%, and PEP27, PEP27-1, PEP27-2 and PEP27-5 peptides were used for treatment of the cells at concentrations of 3.13, 6.25, 12.5, 25.01 50.0 and 100.0 μM/well, respectively, followed by reaction at 37° C. for 1 hour. Then, an amount of hemoglobin contained in the supernatant obtained by centrifugation at 1,000×g was determined by measuring the absorbance at a wavelength of 414 nm. As a control which is a standard for the degree of cell destruction, the absorbance of the obtained supernatant was measured after treatment using 1% Triton X-100 (Sigma, USA) and reaction at 37° C. for 1 hour. With reference to 100% erythrocytes hemolysis activity, hemolysis of each peptide was calculated from the measured absorbance using Equation 1 below. Erythrocyte destruction ability (%)=(Absorbance A−Absorbance B)/(Absorbance C−Absorbance B)×100 [Equation 1]
(wherein, absorbance A represents the absorbance of a reaction solution treated with each peptide measured at a wavelength of 414 nm; absorbance B represents the absorbance of a reaction solution treated with PBS measured at a wavelength of 414 nm; and absorbance C represents the absorbance of a reaction solution treated with 1% Triton X-100 measured at a wavelength of 414 nm).

A further series has as its system E. coli. The series can be described thus: Flow cytometry, propidium iodide staining. Type of series: cell-based, Escherichia coli. Here is the method:
In order to confirm whether the peptide prepared by the method of above 1 acts on the bacterial membrane, PEP27-2 peptide having better antimicrobial activity than the parental peptide was analyzed through flow cytometry.
Thereafter, the supernatant was removed using a centrifuge (10,000 rpm) and stained with propidium iodide (PI) at a concentration of 10 μg/ml at 4° C. for 30 minutes. Then, the unbound propidium iodide (PI) was removed using the centrifuge, and 1 ml of physiological saline (PBS) was added to remove agglomeration of the cells. Thereafter, effects of the peptide on the bacterial membrane were determined using a Bechman flow cytometer.

The test system of the next series is HaCaT cells. The series can be described thus: Cell absorption of peptide (fluorescence imaging). Type of series: cell-based, human. The note with it: 5 μM, 1 hour. How it is done: With regard to the synthetic peptide prepared by the method of above 1, an ability of penetrating cells was determined through a phase-contrast microscope. Specifically, human keratinocyte line (HaCaT cells) was dispensed on a 6-well plate provided with a polylysine coating cover slip (SPL Life Sciences, Gyeonggi-do, Korea) at 2×10^5 cells/well and cultured for 24 hours, and then treated with fluorescein isothiocyanate (FITC)-labeled PEP27-2 (FITC-PEP27-2) at a concentration of 5 μM, followed by incubation in a 5% CO2 incubator for 1 hour. After 1 hour, a nucleus of the cell was treated and stained with Hoechst 33342 nucleic acid dye solution (Invitrogen, Carlsbad, CA, USA; 8 μM) for 10 minutes. After washing the stained product with PBS three times, fluorescence in the cells was imaged using a phase-contrast microscope (EVOS™ FL Auto 2 Imaging System, Thermo Fisher Scientific).

As to `CSCC[C@H](N)C(=O)N[C@@H](CCCNC(=N)N)C(=O)N[C@@H](CCCCN)C(=O)N[C@@H](CCC(=O)O)C(=O)N[C@@H](Cc1ccccc1)C(=O)N[C@@H](Cc1c[nH]cn1)C(=O)N[C@@H](CC(N)=O)C(=O)N[C@H](C(=O)N[C@@H](CC(C)C)C(=O)N[C@@H](CO)C(=O)N[C@@H](CO)C(=O)NCC(=O)N[C@@H](CCC(N)=O)C(=O)N[C@@H](CC(C)C)C(=O)N[C@@H](CC(C)C)C(=O)N[C@@H](C)C(=O)N[C@@H](CC(=O)O)C(=O)N[C@@H](CCCCN)C(=O)N[C@@H](CCCNC(=N)N)C(=O)N1CCC[C@H]1C(=O)N[C@@H](C)C(=O)N[C@@H](CCCNC(=N)N)C(=O)N[C@@H](CC(=O)O)C(=O)N[C@@H](Cc1ccc(O)cc1)C(=O)N[C@@H](CC(N)=O)C(=O)N[C@@H](CCCNC(=N)N)C(=O)N[C@@H](CCCCN)C(N)=O)C(C)C` [PEP27] (H-MRKEFHNVLSSGQLLADKRPARDYNRK-NH2; N-terminus assumed), the calcein leakage in series [1] is 12%. The viability (in general, a per cent measure of how many cells are alive, often set against a control) at 24 h, 100 µM in the series “MTT cytotoxicity” is 100%. In addition, in the series with plasmid DNA (pRSETB), the “binding to DNA (gel electrophoresis)” value was “bound to DNA”. The Erythrocyte destruction ability worked out at 0% in series [2] (Peptide concentration 3.13 μM); 1.26% in series [2] (Peptide concentration 6.25 μM); 1.79% in series [2] (Peptide concentration 12.5 μM); 2.76% in series [2] (Peptide concentration 25 μM); 3.64% in series [2] (Peptide concentration 50 μM); 3.58% in series [2] (Peptide concentration 100 μM, 100% = 1% Triton X-100). The “bacterial membrane destruction” value in the series on E. coli (E. coli, flow cytometry) is reported as “without destruction of the E. coli membrane”. The “PI-positive E. coli cells (membrane destruction ability)” value in the series on E. coli (at MIC, 37° C., 1 hour) is 19.9%.

Consider GRKKRRQRRRPQ (TAT), for which the “cellular absorption into HaCaT cells” value in the series on HaCaT cells was “absorbed into the cytoplasm and the nucleus of HaCaT cell”.
